Broadly, the pIC50 is −log10 of the IC50, conventionally taken in molar units. The low end stands for a large IC50, the high end for a small IC50.

pIC50: −log10 of the molar value. Active and inactive are the calls of the source. The calls are words filed in the database; no cut-off is given here.

The target in data set [1] is Cholinesterase (Homo sapiens, UniProt P06276).
Description: Inhibition of human serum BChE by Ellman's reaction
In data set [2] the target is Acetylcholinesterase (Homo sapiens, UniProt P22303).
Description: Inhibition of human erythrocyte AChE by Ellman's reaction
Data set [3] in a line: Permeability by PAMPA method. Type of data set: ADME. The settings on record: read-out: permeability. Background: The PAMPA barrier holds no transporters, so it reflects passive diffusion.
Data set [4] concerns the target Cholinesterase (Equus caballus, UniProt P81908).
Description: Inhibition of horse serum BChE by Ellman's reaction
The target of data set [5] is T1, Acetylcholinesterase (Bos taurus, UniProt P23795).
T1 sequence (P23795 whole entry): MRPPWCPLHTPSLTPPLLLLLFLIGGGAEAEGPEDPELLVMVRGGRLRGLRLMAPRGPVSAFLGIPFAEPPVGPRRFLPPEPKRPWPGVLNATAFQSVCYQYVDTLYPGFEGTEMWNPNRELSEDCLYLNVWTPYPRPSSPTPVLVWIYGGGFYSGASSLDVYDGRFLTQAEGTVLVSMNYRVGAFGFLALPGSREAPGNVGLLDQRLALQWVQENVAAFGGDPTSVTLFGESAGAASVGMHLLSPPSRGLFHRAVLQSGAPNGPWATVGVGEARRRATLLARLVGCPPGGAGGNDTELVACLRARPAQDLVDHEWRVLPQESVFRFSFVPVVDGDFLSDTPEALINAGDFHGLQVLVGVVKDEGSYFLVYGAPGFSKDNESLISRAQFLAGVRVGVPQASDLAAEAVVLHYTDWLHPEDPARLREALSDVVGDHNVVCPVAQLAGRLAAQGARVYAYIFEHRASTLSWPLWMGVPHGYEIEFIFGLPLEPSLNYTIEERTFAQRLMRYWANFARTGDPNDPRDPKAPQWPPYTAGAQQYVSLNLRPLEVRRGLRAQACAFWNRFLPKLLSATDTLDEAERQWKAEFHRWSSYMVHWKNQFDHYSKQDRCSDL
Description: Inhibition of bovine erythrocyte AChE by Ellman's reaction

Data set [6] relates to SH-SY5Y. In words: Neuroprotective activity against rotenone-induced cell death in human SH-SY5Y cells assessed as lactate dehydrogenase release at 3 uM after 24 hrs. Type of data set: functional.
The nature of data set [7]: Metal chelating activity assessed as formation of copper complex in Tris buffer at pH 7.4 at 22.5 uM after 1 min by UV-vis spectrometry. Type of data set: functional.
Data set [8] can be described thus: Metal chelating activity assessed as formation of copper complex in Tris buffer at pH 7.4 at 22.5 uM by UV-vis spectrometry. It is filed as functional.
Data set [9] relates to SH-SY5Y. The data set can be described thus: Cytotoxicity against human SH-SY5Y cells assessed as lactate dehydrogenase release at 3 uM after 24 hrs. Type of data set: cell-based.
Data set [10] in a line: Metal chelating activity assessed as formation of iron complex in Tris buffer at pH 7.4 at 22.5 uM after 30 mins by UV-vis spectrometry. It is filed as functional.

Cholinesterase (Equus caballus, UniProt P81908), sequence (P81908 whole entry): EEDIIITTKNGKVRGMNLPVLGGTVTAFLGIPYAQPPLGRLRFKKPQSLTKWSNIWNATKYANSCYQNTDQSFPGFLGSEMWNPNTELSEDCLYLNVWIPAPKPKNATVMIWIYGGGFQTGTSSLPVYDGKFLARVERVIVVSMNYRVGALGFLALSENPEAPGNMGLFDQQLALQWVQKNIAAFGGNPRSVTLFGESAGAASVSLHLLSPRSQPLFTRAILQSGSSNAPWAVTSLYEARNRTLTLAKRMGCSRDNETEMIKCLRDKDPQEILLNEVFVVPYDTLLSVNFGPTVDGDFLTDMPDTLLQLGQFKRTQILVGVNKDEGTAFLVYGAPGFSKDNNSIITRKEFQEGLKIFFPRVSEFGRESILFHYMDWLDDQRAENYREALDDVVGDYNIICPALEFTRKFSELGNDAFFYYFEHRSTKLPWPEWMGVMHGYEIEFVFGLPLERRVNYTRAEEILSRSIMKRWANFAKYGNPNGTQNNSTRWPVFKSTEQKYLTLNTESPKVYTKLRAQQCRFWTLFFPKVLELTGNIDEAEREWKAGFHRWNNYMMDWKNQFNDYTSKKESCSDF
Cholinesterase (Homo sapiens, UniProt P06276), sequence (P06276 whole entry): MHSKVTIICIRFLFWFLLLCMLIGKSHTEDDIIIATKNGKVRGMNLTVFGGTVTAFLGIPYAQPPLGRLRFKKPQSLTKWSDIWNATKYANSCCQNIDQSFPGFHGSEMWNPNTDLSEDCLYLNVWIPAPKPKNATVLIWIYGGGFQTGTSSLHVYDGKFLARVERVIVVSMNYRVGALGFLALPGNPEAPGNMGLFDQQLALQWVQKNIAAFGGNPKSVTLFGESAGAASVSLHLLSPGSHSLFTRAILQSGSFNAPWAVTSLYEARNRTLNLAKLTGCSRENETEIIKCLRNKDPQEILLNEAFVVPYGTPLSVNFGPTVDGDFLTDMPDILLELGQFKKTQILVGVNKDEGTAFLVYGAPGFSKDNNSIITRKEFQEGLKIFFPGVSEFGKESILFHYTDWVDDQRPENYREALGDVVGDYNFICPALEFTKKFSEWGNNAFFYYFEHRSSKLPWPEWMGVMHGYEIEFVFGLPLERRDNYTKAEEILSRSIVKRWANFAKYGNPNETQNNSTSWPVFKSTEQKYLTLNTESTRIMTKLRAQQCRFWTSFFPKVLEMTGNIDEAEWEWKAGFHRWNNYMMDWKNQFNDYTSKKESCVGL
Acetylcholinesterase (Homo sapiens, UniProt P22303), sequence (P22303 whole entry, the tested form may be a part): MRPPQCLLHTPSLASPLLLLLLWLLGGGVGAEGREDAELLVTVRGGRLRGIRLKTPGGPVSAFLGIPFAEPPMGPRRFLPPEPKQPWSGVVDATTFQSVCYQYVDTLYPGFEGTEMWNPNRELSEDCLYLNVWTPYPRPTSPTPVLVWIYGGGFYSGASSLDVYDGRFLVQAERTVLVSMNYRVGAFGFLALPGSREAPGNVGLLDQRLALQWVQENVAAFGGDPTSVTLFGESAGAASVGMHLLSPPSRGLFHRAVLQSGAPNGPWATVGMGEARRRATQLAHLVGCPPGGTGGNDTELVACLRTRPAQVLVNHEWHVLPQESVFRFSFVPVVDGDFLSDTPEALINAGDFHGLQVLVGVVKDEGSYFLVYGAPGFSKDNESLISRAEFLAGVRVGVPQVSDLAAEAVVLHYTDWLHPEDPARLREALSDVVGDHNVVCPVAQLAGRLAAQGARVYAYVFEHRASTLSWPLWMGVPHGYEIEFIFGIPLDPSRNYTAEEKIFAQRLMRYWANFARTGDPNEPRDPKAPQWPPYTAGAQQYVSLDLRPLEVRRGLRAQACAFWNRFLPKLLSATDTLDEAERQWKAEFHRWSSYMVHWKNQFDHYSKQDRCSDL

On to `Oc1cccc2cccnc12` [OXYQUINOLINE], for which the pIC50 in data set [1] and in data set [2] was < 7.00 throughout.
For the compound `Cc1ccc2ccc(CNCCCCCCCCNc3c4c(nc5ccccc35)CCCC4)c(O)c2n1.Cl.Cl`, the Papp in data set [3] came to 14.1 ×10⁻⁶ cm/s. The pIC50 in [1] is 8.19; in data set [2], 9.30; in [4], 8.70; in data set [5], 7.12.
As for `Oc1c(CNCCCCCCCCCCNc2c3c(nc4ccccc24)CCCC3)cc(Cl)c2cccnc12`, the pIC50 in [5] was 7.00.
For `Oc1c(CNCCCCCCCCCCNc2c3c(nc4ccccc24)CCCC3)ccc2cccnc12`, the values for the pIC50 in data set [4] and in data set [5] were 7.19 and 7.30, respectively.
Take `Oc1c(CNCCCCCCCCNc2c3c(nc4ccccc24)CCCC3)cc(Cl)c2cccnc12`: the pIC50 in data set [5] is 6.82.
Consider `Cl.Cl.Cl.Oc1c(CNCCCCCCCCCNc2c3c(nc4ccccc24)CCCC3)cc(Cl)c2cccnc12`, for which the Papp in data set [3] is 10 ×10⁻⁶ cm/s. The pIC50 is 7.26 in data set [1], 9.00 in data set [2], 8.19 in data set [4] and 7.07 in data set [5].
`Oc1c(CNCCCCCCCNc2c3c(nc4ccccc24)CCCC3)ccc2cccnc12`: the pIC50 in [4] was 6.82; in data set [5], 7.60.
Consider `Cl.Cl.Oc1c(CNCCCCCCCCCNc2c3c(nc4ccccc24)CCCC3)ccc2cccnc12`, for which the Activity in [6] is on record as 30%; in data set [9] it was “Toxic”. Besides, the outcome in data set [7] and in data set [10] was inactive. Further, in [8], the result was Active. In addition, the Papp in data set [3] came to 17.4 ×10⁻⁶ cm/s. The pIC50 in [1] is 7.70; in data set [2], 8.26; in data set [4], 8.30; in data set [5], 7.70.
Turning to `CN(CCCNCc1ccc2cccnc2c1O)CCCNc1c2c(nc3ccccc13)CCCC2`, the pIC50 in data set [4] is 7.30; in [5], 7.10.
The like results for `Oc1c(CNCCCCCCCCNc2c3c(nc4ccccc24)CCCC3)ccc2cccnc12` were, in that order, 7.52 and 7.05.
The matching figures for `CN(CCCNCc1cc(Cl)c2cccnc2c1O)CCCNc1c2c(nc3ccccc13)CCCC2`: 7.52 and 7.05.
The like results for `Cc1ccc2ccc(CNCCCCCCCCCCNc3c4c(nc5ccccc35)CCCC4)c(O)c2n1` were, in that order, 8.15 and 7.15.
Take `Oc1c(CNCCCCCCNc2c3c(nc4ccccc24)CCCC3)ccc2cccnc12`: the pIC50 in [5] is 6.70.
Still for that read-out and setting: then `Cc1ccc2ccc(CNCCCCCCCCCNc3c4c(nc5ccccc35)CCCC4)c(O)c2n1`, with 7.00; and `Cc1ccc2ccc(CNCCCN(C)CCCNc3c4c(nc5ccccc35)CCCC4)c(O)c2n1`, with 6.70; and `Oc1c(CNCCCCCCCCCCCCNc2c3c(nc4ccccc24)CCCC3)ccc2cccnc12`, with 6.60.
Still for that read-out and setting: in the case of `Cc1ccc2ccc(CNCCCCCCCNc3c4c(nc5ccccc35)CCCC4)c(O)c2n1` it was 6.70; in that of `Oc1c(CNCCCCCCCCCCCCNc2c3c(nc4ccccc24)CCCC3)cc(Cl)c2cccnc12`, 6.40.

The record behind these values is ChEMBL document CHEMBL1177734, “Novel tacrine-8-hydroxyquinoline hybrids as multifunctional agents for the treatment of Alzheimer's disease, with neuroprotective, cholinergic, antioxidant, and copper-complexing properties” (J Med Chem, 2010).
